# Data reported in ChEMBL document CHEMBL3988442, “University of Dundee, Small-Polar-MMV Screening Library” (2021).
# How the values were obtained:
# [1] = In vitro enzyme assay to detect hydrolysis of chlorophenol red-beta-D-[…] directly proportional to the number of Toxoplasma stably expressing beta-galactosidase; type: functional, organism-based, Toxoplasma gondii; details: Toxoplasma gondii
# [2] = microbe, parasite or virus in culture; details: Mycobacterium tuberculosis, 96 h, read-out: pIC50 (converted)
# Schistosoma mansoni = experiment: High throughput screening of compounds against Schistosoma mansoni motility; type: functional; parameters: dose or concentration left out as unconfirmed
# [3] = microbe, parasite or virus in culture; details: Mycobacterium tuberculosis, 72 h, read-out: pIC50 (converted)
# Plasmodium falciparum = experiment: Calibr Malaria Delayed Death Assay SOP; type: functional, organism-based
# ClpP1P2 = ClpP1P2 (Mycobacterium tuberculosis (strain ATCC 25618 / H37Rv), UniProt P9WPC3+P9WPC5); experiment: in vitro assay to detect presence of AMC directly proportional to the activity of ClpP1P2. GHDDI collaboration.; type: functional
# Chain of ClpP1P2 (P9WPC5 whole entry): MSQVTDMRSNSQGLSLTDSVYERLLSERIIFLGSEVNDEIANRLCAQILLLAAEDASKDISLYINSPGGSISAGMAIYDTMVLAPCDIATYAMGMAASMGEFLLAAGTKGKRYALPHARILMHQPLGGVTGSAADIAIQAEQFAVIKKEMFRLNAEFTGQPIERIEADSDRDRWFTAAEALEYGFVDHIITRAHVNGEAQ
# Chain of ClpP1P2 (P9WPC3 whole entry): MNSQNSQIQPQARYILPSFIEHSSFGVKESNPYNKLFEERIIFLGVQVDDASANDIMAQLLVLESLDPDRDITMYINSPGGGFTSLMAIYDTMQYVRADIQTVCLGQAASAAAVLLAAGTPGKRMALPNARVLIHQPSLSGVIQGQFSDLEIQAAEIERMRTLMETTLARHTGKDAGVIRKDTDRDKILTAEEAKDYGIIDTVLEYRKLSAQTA
SMILES,IC50 [1] [µM],Percent Effect (Schistosoma mansoni) [%],other results
O=C(CCNC(=O)c1ccccc1F)Nc1nccs1,> 50.1,,
COc1ccc(C)cc1CC(=O)N1CCN(C)CC1,> 50.1,,
CCc1nc(C(C)(C)N)[nH]c(=O)c1C,> 50.1,,
CC(=O)Nc1ncc(S(=O)(=O)Nc2cccc(F)c2)s1,> 50.1,,
Cn1ccc2ccc(NS(=O)(=O)C3CC3)cc2c1=O,> 50.1,,
CCCC(N)C(=O)N(C)Cc1cccc(N(C)C)c1 (stereo unspecified),> 50.1,,
CCCNC(=O)NCCc1noc(-c2cccnc2)n1,> 50.1,,
CSc1ccccc1NCC(=O)NC1CC1,> 50.1,,
CC1CN(C)CCC1=O (stereo unspecified),> 50.1,,
CCCNC(=O)CCn1nc(C)cc1C,> 50.1,,
COc1cccc(CNCC2CCOC2)c1 (stereo unspecified),> 50.1,,
CCN(CC)CCNc1nc(C(C)C)nc2c(C)nn(CC)c12,> 50.1,,
Cc1cc2cc(C(=O)N3CC[C@@H](N)[C@H](O)C3)ccc2o1,> 50.1,,
CCNc1ncc2c(n1)CN(c1ccc(OC(F)(F)F)cc1)C2=O,> 50.1,,
O=C(CC1CCCC1)NCCc1noc(CO)n1,> 50.1,,
N#CCCNC(=O)CN1CCCC1,> 50.1,,
CC(=O)Nc1ncc(S(=O)(=O)Nc2ccccc2)s1,> 50.1,,
COCc1ccccc1C(=O)N1CCCC(O)C1 (stereo unspecified),> 50.1,,
NCc1cccc(CN2CCCC2)c1,> 50.1,,
O=C1CCCCN1c1ccc(S(=O)(=O)NC2CC2)cc1,> 50.1,,
N#Cc1ccnc(SCC(=O)Nc2ccncc2)c1,> 50.1,,
Cc1ccc(C)c(C(=O)N2CCC3(CCC(=O)N(CC(N)=O)C3)CC2)c1,> 50.1,,
Cc1ccc(CN2CCCn3c(nc(Cn4ccnc4)cc3=O)C2)o1,> 50.1,,

SMILES,IC50 [1] [µM],Percent Effect (Schistosoma mansoni) [%],other results
CN(C)c1cc(CNC(=O)c2nccnc2N)ccn1,> 50.1,,
Fc1ccccc1CN1CCn2ccnc2C1,> 50.1,,
O=C(NC1CCCC1)c1cnccn1,> 50.1,,
NC1CCCCNC1=O (stereo unspecified),> 50.1,,
CCC(CC)(CC)SCC(=O)N1CCNC(=O)C1,> 50.1,,
Cc1c(C(=O)NCC2CCN(C)C2)n(C)c2c(C)cccc12 (stereo unspecified),> 50.1,,
Fc1ccc(-c2n[nH]cc2-c2ccnc(NCCN3CCCC3)n2)cc1,7.48,,
CC(C)COC1CCN(S(=O)(=O)N2CCCC2)CC1,> 50.1,,
Cc1ccc(C(=O)N2CCN(C(C)C(N)=O)CC2)s1 (stereo unspecified),> 50.1,,
Cc1[nH]c2ccccc2c1-c1ccnc(N[C@H](CO)CC(C)C)n1,> 50.1,,
Cc1cc(CN)nc(N(C)C)n1,> 50.1,,
CCn1nc(C)c2nc(C(C)C)nc(NCCCn3ccnc3)c21,> 50.1,,
CC(C)NC(=O)C1CN(C(=O)CCc2ccccc2)CC12CCOCC2 (stereo unspecified),> 50.1,,
CS(=O)(=O)CCN1CCC(C(N)=O)CC1,> 50.1,,
CNc1cccnc1N(C)C,> 50.1,,
CC(CN)C(=O)Nc1cn[nH]c1 (stereo unspecified),> 50.1,,
O=C(CC(F)(F)F)NC1CCN(CC2CC2)C1 (stereo unspecified),> 50.1,,
COc1ccc(CC#N)cc1S(C)(=O)=O,> 50.1,,
OC[C@H]1CCCN1c1nccc(-c2c[nH]nc2C2CCCCC2)n1,11.5,,
CC(C)COCCC(=O)Nc1nccs1,> 50.1,,
COc1ccc(CC(=O)NCC2CCCNC2)cc1F (stereo unspecified),> 50.1,,
Cc1nn(C)c2c(N(C)Cc3ccco3)nc(C3CC3)nc12,11.8,,
O=C([C@@H]1CCO[C@@H]2CCN(CC3CC3)C[C@H]21)N1CCCCO1,> 50.1,,

SMILES,IC50 [1] [µM],Percent Effect (Schistosoma mansoni) [%],other results
Cc1ccoc1C(=O)Nc1cccc(CO)n1,> 50.1,,
CCC(C)Oc1ccc(CNCCc2c[nH]cn2)cc1Cl (stereo unspecified),29,,
C[C@@H]1CN(C(=O)c2cc(F)cc(C#N)c2)C[C@]1(C)O,> 50.1,,
CC(=O)Nc1ncc(S(=O)(=O)Nc2cccc(O)c2)s1,> 50.1,,
CS(=O)(=O)Nc1ccccc1CNC(=O)c1ccoc1,> 50.1,,
COCC(=O)N1CCn2c(COc3cccnc3)cnc2C1C (stereo unspecified),> 50.1,,
NC(=O)C[C@@H](N)c1ccccc1Cl,> 50.1,,
CCc1noc(CC)c1CNC(=O)Nc1ncnn1C,> 50.1,,
CS(=O)(=O)NCc1ccc(CN2CCCC2=O)cc1,> 50.1,,
O=C(NC1CCCC1)N1CCCC(c2nccn2Cc2ccncc2)C1 (stereo unspecified),,-2.761,IC50 [2]: > 50.1 µM
O[C@@H]1CN(c2nc3ccccc3s2)CC[C@H]1c1ccc2c(c1)OCO2,5.27,,
COc1ccc(C(=O)Nc2c(C(=O)N(C)C)nn(C)c2C)cc1,> 50.1,,
Cc1cnc(N)c(C)c1,> 50.1,,
CCOc1ccc2ccccc2c1CNCC1CCNCC1,6.4,,
COc1cccc(-c2noc(C3CCN(Cc4ccccc4C)C3)n2)c1 (stereo unspecified),10.1,,
CCCc1nc(NCCCOC)c2c(n1)c(C)nn2CC,34,,
CCc1nc(Nc2cccc(C(=O)NC)c2)c2c(n1)c(C)nn2CC,> 50.1,,
Cn1cc(N2CC3(CCN(Cc4nccs4)CC3)OCC2=O)cn1,> 50.1,,
CC(=O)Nc1ccc(S(=O)(=O)N2CCC(N)CC2)cc1,> 50.1,,
Cc1c(C)n(Cc2ccccn2)c2nc3c(c(N)c12)CCCCCC3,6.75,,
Fc1cc(Cl)cnc1N1CCCC(c2nccn2Cc2ccccn2)C1 (stereo unspecified),> 50.1,,
COc1ncccc1C(=O)N1CCc2ccccc2C1,> 50.1,,
CCCc1nnsc1C(=O)NCC1CCN(c2ccccn2)CC1,,-128.4,IC50 [3]: > 50.1 µM; IC50 [2]: 30.8 µM

SMILES,IC50 [1] [µM],Percent Effect (Schistosoma mansoni) [%],other results
O=C(c1ccc(Br)o1)N1CCN(Cc2ccc(OC(F)(F)F)cc2)CC1,,71.06,IC50 [3]: 27.8 µM; IC50 [2]: 40.6 µM
Cc1cc(N(C)Cc2cc(C)on2)n2nc(C)c(C)c2n1,,-4.677,IC50 [3]: 13.5 µM; IC50 [2]: 33.7 µM
CN(Cc1nccs1)c1nc(-c2ccccn2)nc2c1CCNCC2,,-21.71,pIC50 (Plasmodium falciparum): 6.065; IC50 (Plasmodium falciparum; Plasmodium falciparum): 882 nM
O=C(CSc1nncs1)N1CCN(Cc2ccc(Cl)s2)CC1,,-37.37,IC50 [3]: 48.2 µM; IC50 [2]: 41.1 µM
COc1ccc(C2CCCN2S(=O)(=O)N(C)CC(C)C)cc1 (stereo unspecified),,29.94,IC50 [3]: 31.2 µM; IC50 [2]: 13.2 µM
Cc1cnn(CC2CCCN2Cc2coc(-c3ccccc3)n2)c1 (stereo unspecified),,-1.507,IC50 [3]: 22.6 µM; IC50 [2]: > 50.1 µM
NS(=O)(=O)N1CCc2ccc(NC(=O)Cc3ccc(F)cc3)cc21,,-30.69,IC50 (ClpP1P2): 27.5 µM
Brc1cc2c(cc1CN1CCC(N3CCCCC3)CC1)OCCO2,,-13,IC50 [3]: 19.9 µM; IC50 [2]: > 50.1 µM
Cn1ncc2c(NCCC34CCCN3CCC4)nc(C3CCCC3)nc21,,79,IC50 [3]: 42.3 µM; IC50 [2]: 26.8 µM
COCC(NC(=O)c1cc[nH]n1)c1cccc(C(F)(F)F)c1 (stereo unspecified),,-87.52,
Cl.Cl.OC(CN1CCN(Cc2ccc(F)cc2)CC1)C1CC1 (stereo unspecified),,-83.95,
CC(NC(=O)N(C)Cc1ccncc1)c1nncn1C (stereo unspecified),,-16.24,
CN(CCc1cccs1)C1CCCN(Cc2noc(C3CC3)n2)C1 (stereo unspecified),,-35.96,IC50 [3]: > 50.1 µM; IC50 [2]: > 50.1 µM
COCCCC1CCCN(C(=O)CCc2cc(O)no2)C1 (stereo unspecified),,4.573,
CN(C)CCN(Cc1cccc(C(F)(F)F)c1)C(=O)c1cc[nH]n1,,19.83,
Cc1cc(C(=O)N2CCC(c3nccn3Cc3ccncc3)CC2)no1,,-48.3,
O=C(NCCCn1cccn1)C1(c2ccc(Br)cc2)CC1,,14.19,
O=C(Nc1cccnc1)N1CCC(n2ccc(C(F)(F)F)n2)CC1,,-86.87,IC50 [3]: 1.07 µM; IC50 [2]: > 50.1 µM
OCC1CCCN1c1cc(NCCc2c[nH]c3ccccc23)ncn1 (stereo unspecified),,50.05,IC50 [3]: 21.4 µM; IC50 [2]: 12.9 µM
CS(=O)(=O)CCSc1cccc(C#N)c1,,-35.13,
CCOCCN1CCN(Cc2nc(C3CC3)no2)CC1CC (stereo unspecified),,-35.07,
O=c1nc(SCc2cccnc2)c2c(n1CCO)CCC2,,-102.8,
Cc1nc(C(C)(C)NC(=O)Nc2cccc(C#N)c2)no1,,-35.79,

SMILES,IC50 [1] [µM],Percent Effect (Schistosoma mansoni) [%],other results
CCc1c(C)sc(NC(=O)CN2CCN(CC)CC2)c1C(=O)OC,,98.89,IC50 [3]: 2.52 µM; IC50 [2]: 15.4 µM
c1cc2c(cc1C1CCCN1Cc1nnnn1C1CC1)OCCO2 (stereo unspecified),,5.096,
CSCC[C@H](N)C(=O)NCc1cc2n(n1)CCCN(C1CCCCC1)C2,,-26.84,
COc1ccc(OC)c(-c2nc(CN(C)Cc3nncn3C)c(C)o2)c1,,-42.05,
O[C@H]1[C@H](n2cc(-c3ccccc3)nn2)c2ccccc2C12CCNCC2,,3.648,
Cn1c(C(F)(F)F)nn(CCNC(=O)c2cnc3ccccc3n2)c1=O,,-7.141,
CC(C#N)CSc1ccccc1NCC(=O)NCc1ccccc1 (stereo unspecified),,-63.78,
O=C1CN(Cc2nnc(-c3ccc(Br)o3)o2)CCN1,,-20.64,
CCCNC(=O)CNC(=O)CCc1ccccc1Br,,24.36,
Cc1ccc(C(=O)N2CCC3(CCC(=O)N(CC(N)=O)C3)CC2)c(O)c1,,-13.5,
Cl.Cl.OC(CN1CCN(Cc2ccc(F)c(F)c2)CC1)C1CC1 (stereo unspecified),,-57.04,
CC(C)C(=O)N1CCN(C(=O)c2cc(C(C)C)on2)[C@H]2CS(=O)(=O)C[C@H]21,,-39.14,
CN(C)C(CNS(=O)(=O)c1ccc(F)cc1F)c1cccn1C (stereo unspecified),,13.79,
Cc1cnc2n(c1=O)CC(C(=O)NC1CC1)CS2 (stereo unspecified),,-61.59,
COCCN1CCC(CN(CC2CCCO2)C(=O)CCNC(C)=O)CC1 (stereo unspecified),,-20.27,
Cc1cccc(C(=O)N2CCN(S(C)(=O)=O)[C@@H](C)C2)c1C,,-56.44,
Cc1cnccc1N1CCCN(C(=O)CCCc2cn[nH]c2)CC1,,-14.12,
c1ccc(-c2noc3c2CN(CC2CC2)CC3)cc1,,-116.8,
CCc1nc(CN2CCCC(N(C)Cc3cnc(C)s3)C2)no1 (stereo unspecified),,23.33,
Cc1n[nH]c(C2CN(C(=O)CCc3ccsc3)CCO2)n1 (stereo unspecified),,-49.32,
CS(=O)(=O)Cc1cccc(C(=O)NCC2Cc3ccccc3O2)c1 (stereo unspecified),,-78.27,
